# Test results reported in patent publication US7737180B2, “Use of neboglamine (CR 2249) as an antipsychotic and neuroprotective” (Rottapharm S.p.A., priority 2004, dated 2010).
# Marks after values point to notes of the source that are not given here.
# How the values were obtained:
# [1] = system: PCP-induced inhibition of the acoustic prestimulus (PPI); experiment: Reversion of PCP-induced inhibition of the acoustic prestimulus (PPI) in the rat; type: in vivo
# Description: The first model used was the study of PCP-induced inhibition of the acoustic prestimulus (PPI) in the rat.
# This phenomenon is known as “pre-pulse inhibition” (PPI). […] Such a deficit may be reproduced experimentally with drugs which induce psychotic phenomena, such dopamine agonists and NMDA antagonists.
# The method is based on that reported by Swerdlow et al. [J. Pharmacol. Exp. Ther. 256 530-536 (1991)] with slight modifications. An acrylic cylinder is used which is equipped with a piezoelectric sensor mounted under the cylinder which detects and transduces movements of the cylinder. A background noise of 60 dB is provided and subsequently two acoustic stimuli separated by 500 ms, the first of which is 20 dB above the background noise, while the second (startle stimulus) is 120 dB for a duration of 40 ms. The session of 30 trials at 30 second intervals with an overall duration of approx. 15 minutes involved subjecting the animal randomly to a startle stimulus either isolated or preceded by the low intensity stimulus. PPI was calculated as a percentage reduction in the level of startle in the presence of the prestimulus compared to that without the acoustic prestimulus. Rats weighing approx. 250 g were used, which were treated intraperitoneally (i.p.) with the products under investigation 15 minutes prior to subcutaneous (s.c.) administration of 3 mg/kg of PCP and 30 minutes before the beginning of the experiment.
# [2] = system: hippocampal ischaemia by bilateral occlusion of the carotid arteries; experiment: Ischaemia induced in the gerbil by bilateral occlusion of the carotid arteries (hippocampal neuroprotection); type: in vivo; settings: for area (mm2): mean ± SD; for % mortality: ischaemia group 28.57
# Method: It was accordingly decided to investigate the possible neuroprotective effects of neboglamine and CR 2863 on a model of hippocampal ischaemia brought about in the gerbil by bilateral occlusion of the carotid arteries.
# In brief, halothane-anaesthetised animals are subjected to bilateral occlusion of the carotid arteries for 5 minutes. After 7 days, the animals are sacrificed, the brain is removed, deep frozen and 10 μm sections from the hippocampal area are prepared which are stained with cresyl violet. A quantitative determination (in mm^2) of the area occupied by […] pyramidal neurons is then performed by means of an image analyser. The type of hippocampal neurodegeneration arising from this model of ischaemia involves a significant reduction in the area of the neuronal nuclei. The drugs were administered intraperitoneally (i.p.) 1 h before the ischaemia.
# [3] = system: NMDA-evoked 3H-dopamine release in slices of rat prefrontal cortex; experiment: PCP-induced blocking of NMDA-evoked 3H-dopamine release in slices of rat frontal cortex; type: cell-based
# Method: Neboglamine's ability to reverse the effect of PCP at a neuronal level was also evaluated in an in vitro test carried out on slices of rat frontal cortex.
# The method involved preparing 0.4 mm thick cortical slices, incubating them for 20 minutes with ^3H-dopamine in physiological solution in the presence of 0.1 μM 6-nitroquipazine and 0.1 μM nisoxetine (selective serotonin and noradrenaline reuptake inhibitors), aerated with 95% O2+5% CO2 at 37° C., which, after appropriate washing with artificial cerebrospinal fluid (aCSF), were superperfused for 30 minutes with aCFS at a rate of 1 ml/minute to equilibrate the system. Then, PCP and neboglamine were added at the stated concentrations to the perfusion liquid for the entire duration of the experiment, while, after 45 minutes, NMDA (100 μM) stimulation was provided for 5 minutes. Another four 5 minute fractions of eluate were then collected and their radioactivity determined.
# The effect of the drugs was evaluated by calculating the ratio between the percentage radioactivity present in the effluent fraction corresponding to the maximum effect and that in the first effluent fraction collected.
# [4] = system: PCP-induced depression (swimming test); experiment: Reversion of PCP-induced depression in the mouse swimming test; type: in vivo
# Description: An animal model of depression (which may be considered as a negative symptom of schizophrenia) was then used to study the activity of neboglamine on the PCP-induced depressive effects in the mouse using the swimming test according to Porsolt et al. [Arch. Int. Pharmadyn. 229, 327-336 (1977)].
# The test involves inducing a state of depression in the animal, which is forced to swim in a glass cylinder from which it cannot escape. The state of depression was accentuated by 14 days' pre-treatment with a daily 10 mg/kg (s.c.) injection of PCP. On the 15th day, the animals were additionally pretreated (i.p.) with physiological solution or neboglamine 30 minutes before the beginning of the test. The duration of immobility (sign of depression) in seconds was evaluated during the experiment of an overall duration of 360 seconds. The results obtained in this manner, calculated between the 3rd and 6th minute of the experiment, i.e. for a period of […], are shown in Table 2.
smiles,measurement,setting,value
"CC1(C)CCC(N)CC1 [CR 2863, 4,4-dimethylcyclohexylamine]",times less active than the parent (neboglamine),[1]; rat PPI model,approx. 3 times
same,PPI (% inhibition),"[1]; rat, drug 10 mg/kg i.p. 15 min before PCP 3 mg/kg s.c., n=10",38* %
same,% inhibition by PCP,"[1]; rat, drug 10 mg/kg i.p. + PCP, calculated by formula",51.4%
same,% protection,[2]; 4 mg/kg i.p.,24.88%
same,area (mm2),"[2]; 4 mg/kg i.p. 1 h before ischaemia, sham 22.39, ischaemia 5.55",9.74 ± 0.9*^+ mm2
same,% mortality,[2]; 4 mg/kg i.p.,11.11%
same,% protection,[2]; 8 mg/kg i.p.,39.25%
same,area (mm2),[2]; 8 mg/kg i.p. 1 h before ischaemia,12.16 ± 5.49 mm2
same,% mortality,[2]; 8 mg/kg i.p.,5.88%
same,% protection,[2]; 16 mg/kg i.p.,57.82%
same,area (mm2),[2]; 16 mg/kg i.p. 1 h before ischaemia,15.23 ± 5.49*^+ mm2
CN[C@H](CC(=O)O)C(=O)O [NMDA],% increase in NMDA-evoked 3H-dopamine release,[3]; Control: NMDA 100 μM alone,120%
"c1ccc(C2(N3CCCCC3)CCCCC2)cc1 [PCP, Phenylcyclidine]",increase of duration of immobility relative to untreated control group,[4]; 2 weeks' chronic PCP,approx. 3 times
same,Immobility,"[4]; PCP only group, 14 days 10 mg/kg s.c. daily, control 48",130 s
same,PPI (% inhibition),"[1]; rat, PCP only group, 3 mg/kg s.c., control 55%",20%
same,% increase in NMDA-evoked 3H-dopamine release,[3]; NMDA 100 μM + PCP 0.1 μM,64%
